# According to publication PMC7160673, “A Degenerate Peptide Library Approach to Reveal Sequence Determinants of Methyllysine-Driven Protein Interactions” (Frontiers in Cell and Developmental Biology, 2020):
# Legend:
# Format in all cases: binding
# [1] = tested on: Millipore #07-449, anti-H3K27me3; assay: Histone peptide microarray, Millipore 07-449; conditions: Millipore 07-449 (anti-H3K27me3) hits, average signal per peptide
# Procedure: (§1) Peptide microarrays were fabricated using an Aushon 2470 microarrayer and used as described ([Cornett et al., 2017]) with the following modifications. Protein and antibody hybridization steps were performed in buffer containing 25 mM HEPES pH 7.5, 100 mM NaCl, 0.5% BSA (w/v), and 0.1% NP-40. Slides were washed 3 × 5 min in PBS supplemented with 0.1% Tween-20 between each hybridization step. Antibodies used were primary anti-GST (Sigma #7781, 1:2,000 dilution) and an AlexaFluor 647-labeled secondary antibody (Life Technologies A-21245, 1:5,000 dilution). […] Full lists of peptides queried by array analysis are in Supplementary Table S2.
# CST 9733 (anti-H3K27me3) = assay: Histone peptide microarray, CST 9733; conditions: histone peptide array signal normalized to the highest peptide average per subarray, hits; CST 9733 LOT:14 dilution 1:5,000
# Procedure: as §1
# [2] = tested on: Active Motif #39161, anti-H3K9me3; assay: Histone peptide microarray, Active Motif 39161; conditions: Active Motif 39161 (anti-H3K9me3) hits
# Procedure: as §1
# 53BP1 TTD = assay: Histone peptide microarray, 53BP1 TTD; conditions: 53BP1 TTD hits, average signal per peptide
# Procedure: as §1
# [3] = tested on: Abcam #ab8895, anti-H3K4me1; assay: Histone peptide microarray, Abcam ab8895; conditions: Abcam ab8895 (anti-H3K4me1) hits, average signal per peptide
# Procedure: as §1
Substance,Avg Signal [1],Avg Signal (CST 9733 (anti-H3K27me3)),Avg Signal [2],Avg Signal (53BP1 TTD),Avg Signal [3]
Ac-APRKQLATKAARK(Ac)pSAPSTGG-Peg-K(Biot)-NH2 [H3.3K27acS28p],0.0005992,0.0002202,0.002338,–,–
Ac-APRKQLATKAARK(Me3)pSAPSTGG-Peg-Biot [H3.3K27me3S28p],0.1105,0.1559,0.0007938,–,–
Ac-GK(Ac)GGAK(Ac)RHRK(Me)VLRDNIQ-Peg-Biot [H4K12acK16acK20me1],0.001642,0.0009983,0.005445,–,–
Ac-GK(Ac)GGAK(Ac)RHRKVLRDNIQ-Peg-Biot [H4K12acK16ac H4(11-27)],–,3.787e-5,–,–,–
Ac-GKGGAKRHRKVLRDNIQ-Peg-Biot [H4(11-27)],–,0.0004161,0.04504,0.128,–
Ac-RRYQKSTELL-Peg-Biot [H3.1.1(52-61)],0.0002743,3.787e-5,0.0005198,–,–
Ac-SAAKASQSRSAKAGLT-Peg-Biotin [yH2A(10-25)],–,6.218e-5,–,–,–
Ac-SGCitGK(Ac)QGGKARAKAKTR-Peg-Biot [Peptide H2ACit3K5ac],–,1.355e-5,–,0.009599,–
Ac-SGRGK(Ac)TGGKARAKAKSR-Peg-Biotin [Peptide H2A.XK5ac],–,0.0001351,–,–,–
Ac-SGRGK(But)GGK(But)GLGK(But)GGAKRHRKVLR-Peg-Biot [H4K5butK8butK12but],0.01591,0.0001351,0.01514,–,0.000718
Ac-SGRGK(Me)GGK(Ac)GLGK(Ac)GGAK(Ac)RHRKVLR-Peg-Biot [H4K5me1K8acK12acK16ac],0.002528,1.398e-6,0.0048,–,0.01497
Ac-SGRGKGGK(Ac)GLGK(Ac)GGAKRHRKVLR-Peg-Biot [Peptide H4K8acK12ac],0.006396,0.0001351,0.0006444,–,0.002906
Ac-SGRGKGGKGLGK(Ac)GGAK(Ac)RHRKVLR-Peg-Biot [H4K12acK16ac H4(1-23)],–,3.927e-5,–,–,–
Ac-SGRGKGGKGLGK(Ac)GGAKRHRK(Ac)VLR-Peg-Biot [Peptide H4K12acK20ac],0.007438,0.0004147,0.009155,–,0.005228
Ac-SGRGKGGKGLGK(Ac)GGAKRHRKVLR-Peg-Biot [Peptide H4K12ac],–,0.000354,0.01336,0.1511,0.001961
Ac-SGRGKTGGKARAKAKSR-Peg-Biotin [H2A.X(1-17)],–,3.787e-5,0.0004918,–,–
H3.1.1(15-34) H3.1(15-34): arrayed peptide ID 202 or 2551; same annotation and length,–,0.0005485,–,–,–
KSAPSTGGVK(Me3)KPHRYKPGT-G-K(Biot)-NH2 [yH3K36me3],–,0.0003217,–,0.1137,–
KSAPSTGGVK(Me3)KPHRYRPGTV-K(biotin)-NH2 [H3.3K36me3 H3.3(27-46)],–,0.00263,–,–,–
KSAPSTGGVK(Me)KPHRYRPGT-G-K(Biot)-NH2 [Peptide H3.3K36me1],0.009576,0.0007823,0.0005946,–,0.003496
PEPAK(Me2)SAPAPKKGSKKAVTKAQKK-Peg-Biot [Peptide H2BK5me2],–,0.0008674,–,0.1922,–
PEPAK(Me3)SAPAPKKGSKKAVTKAQKK-Peg-Biot [Peptide H2BK5me3],0.1635,0.00351,0.03906,0.04404,–
PRRRRRRGSSGAGGRGRTCS-Peg-Biot [Peptide H2A.B],–,0,–,–,–
SGRGK(Ac)QGGK(Ac)ARAK(Ac)AK(Ac)TR-Peg-Biot [H2AK5acK9acK13acK15ac(noN-ac)],–,6.218e-5,–,0.2522,–
